Measured values: ChEMBL document CHEMBL4184253, “Design, synthesis, and structure-activity relationships of new benzofuro[3,2-b]pyridin-7-ols as DNA topoisomerase II inhibitors” (Bioorg Med Chem Lett, 2018)
Counter-ions that a name gives are not always drawn. Active and inactive are the calls of the source. No cut-off for these calls is given here.

What was measured:
[1] = biological target: T1, DNA topoisomerase 1 (Homo sapiens) (UniProt P11387); assay: Inhibition of human recombinant topoisomerase-1 assessed as inhibition of relaxation of supercoiled pBR322 plasmid DNA at 20 uM measured after 1 hr by ethidium bromide staining based agarose gel electrophoresis relative to control
T1 sequence (whole entry): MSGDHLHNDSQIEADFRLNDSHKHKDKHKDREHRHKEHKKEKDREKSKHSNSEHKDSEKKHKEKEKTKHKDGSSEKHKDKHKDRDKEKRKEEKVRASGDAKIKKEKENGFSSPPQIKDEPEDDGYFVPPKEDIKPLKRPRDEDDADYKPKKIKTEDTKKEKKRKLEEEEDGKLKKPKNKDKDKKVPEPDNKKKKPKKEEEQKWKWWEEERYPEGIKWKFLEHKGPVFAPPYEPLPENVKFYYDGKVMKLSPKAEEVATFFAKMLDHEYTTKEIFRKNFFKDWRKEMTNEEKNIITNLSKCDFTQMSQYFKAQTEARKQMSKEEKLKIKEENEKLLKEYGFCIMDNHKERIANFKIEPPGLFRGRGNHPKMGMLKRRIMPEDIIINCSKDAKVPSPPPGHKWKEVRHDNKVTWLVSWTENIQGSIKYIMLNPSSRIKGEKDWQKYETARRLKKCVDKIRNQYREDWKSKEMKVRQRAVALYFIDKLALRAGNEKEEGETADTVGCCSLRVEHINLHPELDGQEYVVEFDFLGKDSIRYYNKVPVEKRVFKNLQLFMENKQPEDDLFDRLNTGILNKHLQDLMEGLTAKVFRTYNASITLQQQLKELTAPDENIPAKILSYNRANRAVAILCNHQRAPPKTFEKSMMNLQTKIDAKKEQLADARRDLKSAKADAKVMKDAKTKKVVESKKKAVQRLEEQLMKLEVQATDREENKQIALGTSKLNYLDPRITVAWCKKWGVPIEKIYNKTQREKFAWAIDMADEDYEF

T47D = assay: Antiproliferative activity against human T47D cells incubated for 72 hrs by CCK8 assay; type: functional, cell-based
[2] = biological target: T1, DNA topoisomerase 1 (Homo sapiens); assay: Inhibition of human recombinant topoisomerase-1 assessed as inhibition of relaxation of supercoiled pBR322 plasmid DNA at 100 uM measured after 1 hr by ethidium bromide staining based agarose gel electrophoresis relative to control
HCT-15 = assay: Antiproliferative activity against human HCT15 cells incubated for 72 hrs by CCK8 assay; type: functional, cell-based; conditions: HCT-15, 72 h
[3] = biological target: DNA topoisomerase 2-alpha (Homo sapiens) (UniProt P11388); assay: Inhibition of human recombinant topoisomerase-2alpha assessed as inhibition of relaxation of supercoiled pBR322 plasmid DNA at 100 uM measured after 1 hr by ethidium bromide staining based agarose gel electrophoresis relative to control
DNA topoisomerase 2-alpha (Homo sapiens), sequence (P11388 whole entry): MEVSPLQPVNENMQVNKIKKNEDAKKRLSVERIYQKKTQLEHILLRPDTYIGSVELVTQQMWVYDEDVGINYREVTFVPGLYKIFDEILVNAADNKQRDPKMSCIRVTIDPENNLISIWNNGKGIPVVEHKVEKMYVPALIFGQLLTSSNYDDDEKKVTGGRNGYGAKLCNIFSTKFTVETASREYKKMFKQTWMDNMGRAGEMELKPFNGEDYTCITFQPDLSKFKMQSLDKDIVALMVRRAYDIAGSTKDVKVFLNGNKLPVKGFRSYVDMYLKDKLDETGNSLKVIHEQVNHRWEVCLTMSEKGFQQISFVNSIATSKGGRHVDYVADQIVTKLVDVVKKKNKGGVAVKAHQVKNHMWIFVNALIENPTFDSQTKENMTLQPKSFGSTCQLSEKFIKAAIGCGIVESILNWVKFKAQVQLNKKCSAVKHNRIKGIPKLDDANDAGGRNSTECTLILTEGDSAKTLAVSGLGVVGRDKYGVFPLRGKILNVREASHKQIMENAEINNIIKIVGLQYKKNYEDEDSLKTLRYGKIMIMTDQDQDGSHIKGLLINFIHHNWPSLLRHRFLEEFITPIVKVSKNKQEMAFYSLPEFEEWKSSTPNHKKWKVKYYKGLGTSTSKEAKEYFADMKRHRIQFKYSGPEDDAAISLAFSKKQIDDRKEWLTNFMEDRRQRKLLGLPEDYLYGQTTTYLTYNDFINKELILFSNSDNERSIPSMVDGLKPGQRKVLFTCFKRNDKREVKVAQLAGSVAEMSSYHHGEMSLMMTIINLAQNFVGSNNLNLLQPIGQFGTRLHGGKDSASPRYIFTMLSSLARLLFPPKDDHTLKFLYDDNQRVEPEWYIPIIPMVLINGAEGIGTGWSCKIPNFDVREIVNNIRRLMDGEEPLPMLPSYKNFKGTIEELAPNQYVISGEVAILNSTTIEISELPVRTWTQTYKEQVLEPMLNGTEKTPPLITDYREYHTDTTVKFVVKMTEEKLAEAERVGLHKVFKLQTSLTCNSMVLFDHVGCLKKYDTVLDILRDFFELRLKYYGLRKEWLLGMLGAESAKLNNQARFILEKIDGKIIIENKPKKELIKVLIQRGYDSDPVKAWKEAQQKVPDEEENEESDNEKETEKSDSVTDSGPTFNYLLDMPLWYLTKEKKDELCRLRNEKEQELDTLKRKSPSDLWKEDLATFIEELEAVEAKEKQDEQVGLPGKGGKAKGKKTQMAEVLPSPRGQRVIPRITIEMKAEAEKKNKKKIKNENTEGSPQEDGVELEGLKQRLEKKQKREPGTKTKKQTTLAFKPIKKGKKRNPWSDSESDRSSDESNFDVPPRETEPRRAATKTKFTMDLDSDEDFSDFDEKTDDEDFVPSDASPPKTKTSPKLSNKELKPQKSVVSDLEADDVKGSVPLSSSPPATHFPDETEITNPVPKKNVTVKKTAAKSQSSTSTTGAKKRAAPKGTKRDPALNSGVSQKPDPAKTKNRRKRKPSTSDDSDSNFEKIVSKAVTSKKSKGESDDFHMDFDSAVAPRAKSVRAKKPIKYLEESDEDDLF

HeLa = assay: Antiproliferative activity against human HeLa cells incubated for 72 hrs by CCK8 assay; type: functional, cell-based
[4] = biological target: DNA topoisomerase 2-alpha (Homo sapiens) (UniProt P11388); assay: Inhibition of human recombinant topoisomerase-2alpha assessed as inhibition of relaxation of supercoiled pBR322 plasmid DNA at 20 uM measured after 1 hr by ethidium bromide staining based agarose gel electrophoresis relative to control etoposide
[5] = biological target: DNA topoisomerase 2-alpha (Homo sapiens) (UniProt P11388); assay: Inhibition of human recombinant topoisomerase-2alpha assessed as inhibition of relaxation of supercoiled pBR322 plasmid DNA at 100 uM measured after 1 hr by ethidium bromide staining based agarose gel electrophoresis relative to control etoposide
[6] = biological target: DNA topoisomerase 2-alpha (Homo sapiens) (UniProt P11388); assay: Inhibition of human recombinant topoisomerase-2alpha assessed as inhibition of relaxation of supercoiled pBR322 plasmid DNA at 20 uM measured after 1 hr by ethidium bromide staining based agarose gel electrophoresis relative to control

| inhibition [1] | IC50 (T47D) | inhibition [2] | IC50 (HCT-15) | inhibition [3] | IC50 (HeLa) | Ratio [4] | Ratio [5] | inhibition [6] | inhibition [5] | SMILES |
| --- | --- | --- | --- | --- | --- | --- | --- | --- | --- | --- |
| 0% | 1.97 µM | 39.9% | 9.34 µM | 100% | 3.62 µM | 1.42 | 1.62 | 70.8% |  | Oc1ccc(-c2cc(-c3ccccc3O)nc3c2oc2cc(O)ccc23)cc1 |
| 0% | > 50 µM | 30.8% | > 50 µM | 18.3% | > 50 µM |  |  |  |  | Oc1ccc2c(c1)oc1c(-c3ccccc3)cc(-c3ccccc3)nc12 |
|  | 0.71 µM | 18.2% | 1.6 µM | 83.1% | 4.11 µM | 1.33 | 1.08 | 52.6% |  | Oc1ccc2c(c1)oc1c(-c3ccccc3)cc(-c3ccccc3O)nc12 |
| 0% | > 50 µM | 30.3% | > 50 µM | 0.4% | > 50 µM |  |  |  | inactive | Oc1ccc(-c2cc(-c3ccccc3)nc3c2oc2cc(O)ccc23)cc1 |
|  | 0.34 µM | 27.4% | 4.11 µM | 98% | 3.27 µM | 0.84 | 1.58 | 41.9% |  | Oc1cccc(-c2cc(-c3ccccc3)nc3c2oc2cc(O)ccc23)c1 |
| 0% | 5.3 µM | 43.9% | > 50 µM | 78.4% | > 50 µM | 1.83 | 1.02 | 72.2% |  | Oc1ccc(-c2cc(-c3ccccc3)c3oc4cc(O)ccc4c3n2)cc1 |
|  | 1.26 µM | 25.6% | 6.96 µM | 99.1% | 3.39 µM | 1.53 | 1.6 | 76% |  | Oc1cccc(-c2cc(-c3ccccc3O)nc3c2oc2cc(O)ccc23)c1 |
| 0% | 0.64 µM | 33.9% | 2.5 µM | 63% | 3.63 µM | 0.31 | 0.82 | 12% |  | Oc1cccc(-c2cc(-c3ccccc3O)c3oc4cc(O)ccc4c3n2)c1 |
| 38.1% | 0.19 µM | 66.3% | 3.73 µM | 66.1% | 2.16 µM | 1.11 | 1.07 | 55.1% |  | Oc1ccc(-c2cc(-c3cccc(O)c3)c3oc4cc(O)ccc4c3n2)cc1 |
|  | 0.59 µM | 22.4% | 1.22 µM | 100% | 0.86 µM | 1.49 | 1.62 | 74.1% |  | Oc1cccc(-c2cc(-c3cccc(O)c3)c3oc4cc(O)ccc4c3n2)c1 |
| 18.6% | 0.17 µM | 33.8% | 4.21 µM | 71% | 3.32 µM | 1.33 | 1.15 | 65.9% |  | Oc1ccc(-c2cc(-c3ccc(O)cc3)c3oc4cc(O)ccc4c3n2)cc1 |
|  |  |  | 0.51 µM |  | 1.5 µM |  |  |  |  | COc1cccc2c1C(=O)c1c(O)c3c(c(O)c1C2=O)C[C@@](O)(C(=O)CO)C[C@@H]3O[C@H]1C[C@H](N)[C@H](O)[C@H](C)O1 [DOXORUBICIN HYDROCHLORIDE] |
|  | 2.79 µM | 15.9% | > 50 µM | 46.3% | > 50 µM | 0.82 | 0.6 | 32.5% |  | Oc1cccc(-c2cc(-c3ccccc3)c3oc4cc(O)ccc4c3n2)c1 |
| 60.9% | 5.25 µM | 71.7% | 23.9 µM | 58.4% | 29.1 µM | 0.91 | 0.94 | 45.1% |  | Oc1ccc(-c2cc(-c3cccc(O)c3)nc3c2oc2cc(O)ccc23)cc1 |
|  | 0.62 µM | 3.3% | 1.26 µM | 87.3% | 2.86 µM | 0.73 | 1.12 | 29% |  | Oc1ccc(-c2cc(-c3ccccc3O)c3oc4cc(O)ccc4c3n2)cc1 |
| 0% | 1.03 µM | 30.1% | > 50 µM | 46% | > 50 µM | 0.96 | 0.6 | 38% |  | Oc1ccc2c(c1)oc1c(-c3ccccc3O)cc(-c3ccccc3O)nc12 |
|  | 0.74 µM | 14.2% | 5.74 µM | 52.5% | 6.93 µM | 0.48 | 0.69 | 19.1% |  | Oc1ccc2c(c1)oc1c(-c3ccccc3O)cc(-c3ccccc3)nc12 |
